{
  "source": "patent US20230201151A1",
  "about": "“FORMULATIONS AND METHODS FOR TREATING ACUTE RESPIRATORY DISTRESS SYNDROME, ASTHMA, OR ALLERGIC RHINITIS” (UNIVERSITY OF FLORIDA RESEARCH FOUNDATION, INC., priority 2020, published 2023)",
  "assay_type_in_all_cases": "cell-based, human",
  "key": {"HBECs": {"tested_on": "HBECs", "assay": "TEER (epithelial barrier function) in differentiated HBECs, Ussing chamber", "details": "for TEER, normalized to control: day 16; for cytokine concentration that increased TEER / epithelial resistance: 7 days incubation", "method": "(§1) High individual variation in benzamil-sensitive current and TEER in HBECs. In an Ussing chamber-based experimental design, basal short-circuit current (Isc) and transepithelial electrical resistance (TEER) were recorded in differentiated HBECs from two lung donors that were grown on snapwells at an air-liquid interface for 28 to 35 days. Benzamil, a potent ENaC blocker was used to determine ENaC activity by calculating benzamil-sensitive Isc from changes in Isc that occur 15 minutes after adding 6 μM benzamil to the apical side of cells. […] Therefore, normalized data were used for all subsequent experiments for statistical analyses relating to FIGS. 13-18.\n(§2) Basal treatment with cytokines [IL-13 (Abcam), IL-4 (PeproTech), TNF-α, IFN-γ and TGF-β1 (R&D Systems)] diluted in ALI medium started as early as day 14 post differentiation. Individual cytokines or cytokine cocktails were added to the culture medium at the desired concentrations and cells were incubated with the cytokines for a maximum of 16 days. ALI medium containing cytokines was changed every two days. Age-matched HBECs were assigned to the following treatment groups:\n(§3) II Time-dependent studies: These studies were done using a concentration that ensured maximum inhibition of benzamil-sensitive Isc and TEER. HBECs were treated with respective cytokines for 2, 4, 6, 8, 10, 12, 14, or 16 days. IFN-γ, TNF-α or TGF-β1 at 1 ng/mL, IL-13 at 20 ng/mL and IL-4 at 2 ng/mL were used.\n(§4) III Cytokine cocktails: were prepared using IFN-γ and TNF-α at 0.05, 0.5, 2.5, 5 and 10 ng/mL while TNF-α, IFN-γ and TGF-β1 at 1 ng/mL for each of the cytokines was added to the culture media for 7 days.\n(§5) Ussing chamber experiments: Snapwells with differentiated HBECs that were incubated with cytokines or age-matched HBECs without cytokine exposure were mounted in Ussing chambers (Physiologic Instruments), and cells were either bathed in isotonic ringer solution containing 113.8 mM Na^+, 93.6 mM Cl^−, 25 mM HCO3^−, 5.2 mM K^+, 2.4 mM HPO4^−, 0.4 mM H2PO4^−, 1.2 mM Mg^2+, 1.2 mM Ca^2+, and 75 mM mannitol, or in AA-EC01. Glucose (5 mM) was added to the basal side, and chambers were bubbled with 95% O2 and 5% CO2 at 37° C. AA-EC01 contained 8 mM lysine, 8 mM tryptophan, 8 mM arginine, 8 mM glutamine, and 1.2 mM tyrosine, and AANC contained 8 mM leucine, 8 mM cysteine, 8 mM isoleucine, 8 mM aspartic acid and 8 mM glutamate (Ajinomoto), both diluted in an electrolyte solution containing 113.8 mM Na^t, 93.6 mM Cl^−, 25 mM HCO3^−, 5.2 mM K^+, 2.4 mM HPO4^−, 0.4 mM H2PO4^−, 1.2 mM Mg′, 1.2 mM Ca^2+ and 40 mM mannitol at pH 7.4 and 300 mOsm. Cell cultures were allowed to equilibrate in the Ussing chambers for 30 minutes while continuously voltage clamped to 0 mV. Basal short circuit current (Isc) and transepithelial electrical resistance (TEER) were recorded at 30-second intervals, and benzamil-sensitive Isc was calculated from the difference of basal Isc recorded after 30 minutes and Isc measured at 15 minutes after adding 6 μM of benzamil (ThermoFisher) to the apical side.\n(§6) Statistical analysis: Results are presented as mean±standard error of mean (SEM). Analyses were performed with OriginPro 2018 software package. For each treatment group, values were tested for normal distribution using the Shapiro-Wilk normality test. […] The values were normalized to controls within the group, and data were pooled for comparison between groups. Kruskal-Wallis test was used for comparing the overall effect of ringer, AA-EC01 and AANC on benzamil-sensitive Isc and TEER, and Mann Whitney U test was used for pairwise comparison within the group and for comparison between basal values for each cytokine at zero ng/mL or day zero with each concentration and time period studied. P<0.05 was considered significant, and NS indicates not significant."}, "ENaC [1]": {"tested_on": "ENaC", "assay": "ENaC current in HBEC after increasing cytokine concentrations for 7 days (FIGS. 9-11)", "details": "for ENaC activity with increasing cytokine concentration: 7 days (FIGS. 9, 11)", "method": "FIG. 9: ENaC Activity in Human Bronchial Epithelial Cells after Exposure to Increasing Concentrations of TNF-α for 7 Days. Human bronchial epithelial cells (HBEC) were treated with different concentrations of TNF-α (0.00005, 0.0005, 0.005, 0.05, 0.5, 5, 50 or 500 ng/mL media) for 7 days.\nFIG. 10: ENaC Activity in Human Bronchial Epithelial Cells after Exposure to Increasing Concentrations of IFN-γ for 7 Days. HBEC were treated with IFN-γ (0.00005, 0.0005, 0.005, 0.05, 0.5, 5, 50 or 500 ng/mL media) for 7 days.\nFIG. 11: ENaC Activity in Human Bronchial Epithelial Cells after Exposure to Increasing Concentrations of TGF-β1 for 7 Days. HBEC were treated with TGF-β1 (0.00005, 0.0005, 0.005, 0.05, 0.5, 5, 50 or 500 ng/mL media) for 7 days.\nIn some embodiments, HBECs were treated with different concentrations of TNF-α ranging from 0.00005 ng/mL to 500 ng/mL TNF-α (e.g., 0.00005, 0.0005, 0.005, 0.05, 0.5, 5, 50 or 500 ng/mL TNF-α in media) for 7 days."}, "ENaC [2]": {"tested_on": "ENaC", "assay": "Benzamil-sensitive Isc (ENaC activity) in differentiated HBECs, Ussing chamber", "details": "for cytokine concentration that decreased benzamil-sensitive Isc: 7 days incubation", "method": "as §1, §2, §3, §4, §5, §6"}},
  "data": [
    {"substance": "IFN-γ: type II IFN family cytokine (R&D Systems) added to HBEC culture medium", "values": [
      {"measurement": "TEER, normalized to control", "setting": "HBECs; 1 ng/mL cytokine", "value": "142.5±12.3", "unit": "%"},
      {"measurement": "cytokine concentration that increased TEER / epithelial resistance", "setting": "HBECs", "value": "≥ 0.5", "unit": "ng/mL"},
      {"measurement": "IFN-γ concentration at which ENaC current decreased relative to baseline", "setting": "ENaC [1]; 7 days (FIG. 10)", "value": "> 0.05", "unit": "ng/mL media"},
      {"measurement": "IFN-γ concentration with significant decrease in ENaC activity", "setting": "ENaC [1]; 7 days (FIG. 10)", "value": "> 5", "unit": "ng"},
      {"measurement": "benzamil-sensitive Isc, normalized to control", "setting": "ENaC [2]; 1 ng/mL cytokine, day 16", "value": "43.7±7.0", "unit": "%"},
      {"measurement": "cytokine concentration that decreased benzamil-sensitive Isc", "setting": "ENaC [2]", "value": "> 20", "unit": "ng/mL"},
      {"measurement": "benzamil-sensitive Isc, of baseline values", "setting": "ENaC [2]; IFN-γ 5×10^−4 ng/mL, 7 days, normalized to control", "value": "161.62±9.7", "unit": "%"}
    ]},
    {"substance": "IL-4: Th2 cytokine (PeproTech) added to HBEC culture medium", "values": [
      {"measurement": "TEER, normalized to control (maximum inhibition)", "setting": "HBECs; 2 ng/mL IL-4, day 10", "value": "37.5±2", "unit": "%"},
      {"measurement": "benzamil-sensitive Isc, normalized to control", "setting": "ENaC [2]; 2 ng/mL IL-4, day 4", "value": "59.9±9.4", "unit": "%"},
      {"measurement": "benzamil-sensitive Isc, normalized to control (maximum reduction)", "setting": "ENaC [2]; 2 ng/mL IL-4, day 10", "value": "8.6±5", "unit": "%"}
    ]},
    {"substance": "TGF-β1: Treg cytokine (R&D Systems) added to HBEC culture medium", "values": [
      {"measurement": "TEER over time", "setting": "HBECs; 1 ng/mL cytokine, up to 16 days", "value": "remained unaffected"},
      {"measurement": "cytokine concentration that increased TEER / epithelial resistance", "setting": "HBECs", "value": "≥ 5", "unit": "ng/mL"},
      {"measurement": "ENaC activity with increasing cytokine concentration", "setting": "ENaC [1]", "value": "concentration-dependent decrease"},
      {"measurement": "benzamil-sensitive Isc, normalized to control", "setting": "ENaC [2]; 1 ng/mL cytokine, day 4", "value": "64.4±8.3", "unit": "%"},
      {"measurement": "benzamil-sensitive Isc, normalized to control", "setting": "ENaC [2]; 1 ng/mL cytokine, day 16", "value": "20.3±5.8", "unit": "%"},
      {"measurement": "cytokine concentration that decreased benzamil-sensitive Isc", "setting": "ENaC [2]", "value": "≥ 0.5", "unit": "ng/mL"},
      {"measurement": "benzamil-sensitive Isc, normalized to control", "setting": "ENaC [2]; TGF-β1 0.5 ng/mL, 7 days", "value": "70.4±2.5", "unit": "%"},
      {"measurement": "benzamil-sensitive Isc, normalized to control", "setting": "ENaC [2]; TGF-β1 50 ng/mL, 7 days", "value": "1.5±0.3", "unit": "%"}
    ]},
    {"substance": "TNF-α", "values": [
      {"measurement": "TEER, normalized to control", "setting": "HBECs; 1 ng/mL cytokine", "value": "132.6±9.0", "unit": "%"},
      {"measurement": "ENaC activity with increasing cytokine concentration", "setting": "ENaC [1]", "value": "concentration-dependent decrease"},
      {"measurement": "benzamil-sensitive Isc, normalized to control", "setting": "ENaC [2]; 1 ng/mL cytokine, day 4", "value": "81.2±5.4", "unit": "%"},
      {"measurement": "benzamil-sensitive Isc, normalized to control", "setting": "ENaC [2]; 1 ng/mL cytokine, day 16", "value": "39.2±2.4", "unit": "%"},
      {"measurement": "cytokine concentration that decreased benzamil-sensitive Isc", "setting": "ENaC [2]", "value": "≥ 0.05", "unit": "ng/mL"},
      {"measurement": "benzamil-sensitive Isc, normalized to control (plateau of reduction)", "setting": "ENaC [2]; TNF-α around 10 ng/mL, 7 days", "value": "17.4±3.6", "unit": "%"}
    ]}
  ]
}
